Data reported in patent publication US20050100507A1, “Chemotactic peptide antagonists for imaging sites of inflammation” (Bracco Imaging S.p.A., priority 1998, published 2005).
Square brackets hold non-standard residues; d marks the D form. Ends that are not written are not given here. * marks the point of attachment. Acetyl(9-fluorenyl) = O=C(CC1c2ccccc2-c2ccccc21)*; N,N‑diphenylcarbamoyl = O=C(N(c1ccccc1)c1ccccc1)*; N,N‑diethylcarbamoyl = CCN(CC)C(=O)*; Cyclopropanecarbonyl = O=C(C1CC1)*; Nle = CCCC[C@H](N)C(=O)O

How the values were obtained:
human neutrophils = assay: Myeloperoxidase release from human neutrophils; format: cell-based; settings: result in words; for inhibition of MPO release in fMLF-stimulated human neutrophils (FIG. 4): 10 uM compound, fMLF 10^−8 M and 10^−6 M, p<0.05; for stimulation of MPO release by the compound itself in human neutrophils: up to 10 uM compound, low fMLF (10^−14M, 10^−12M)
Experimental: Approximately 30 mL of venous blood was collected from healthy volunteers with 100 units of heparin per mL of blood. Samples were then mixed with 8 mL of 6% dextran solution and incubated at 37° C. for 1 hour for RBC sedimentation. Leukocyte-rich plasma was collected and centrifuged at 1500 rpm for 5 minutes. Cell pellets were resuspended in 35 mL of saline and 10 mL of lymphocyte separation medium was layered over prior to additional centrifugation at 1200 rpm for 30 minutes. Sedimented cells were washed once with 35 mL of saline and RBCs were lysed by resuspension in 1.8 mL of sterile H2O for 15 seconds. Isotonicity was restored with the addition of 0.2 mL of 10×HBSS− followed by the addition of 35 mL of saline. Centrifugation at 1500 rpm for 5 minutes was then performed. Following final washing of the PMN pellet with 35 mL of saline, cell viability was determined via trypan blue exclusion and cell number was determined.
(§1) 0.5×10^6 PMNs per sample were incubated in 96-well Millipore Multiscreen 0.65 um filter plates. In a final volume of 150 uL, 50 uL of the respective fMLP analogues (10 uM to 1 pM) and/or fMLP (10 uM to 1.0 uM) were incubated with isolated PMNs pre-treated with cytochalasin B (5 ug/mL) for 10 minutes. Following a 30 minute incubation period at room temperature, the supernatant was collected into a 96-well polypropylene plate with the Millipore vacuum apparatus. A stock solution of o-phenylenediamine (OPD) was made to contain 2.5 mg of OPD, 5 ul of H2O2 and 10 mL HBSS+ and supernatant samples were subsequently incubated with 50 uL of OPD solution. The reaction was stopped after 2 minutes by the addition of 2.5M H2SO4. Photometric analysis was performed with the Thermomax Microplate Reader with optical density (O.D.490) values being read at a wavelength of 490 nm. Absorbance was measured against a blank containing 150 μl of HBSS+ which was subtracted from wells containing cells and the various treatments. MPO release was expressed as a percentage of the total release of myeloperoxidase in control wells containing cells ±fMLF.

Rat FPR = molecular target: T1, Rat FPR (Rattus norvegicus, UniProt D4A7Q2); assay: Competition binding with 6 nM 3H-fMLF to elicited rat PMNs; settings: for competition binding of N-terminal modified NleLFK peptides (FIG. 8): peptides at 1 uM and 10 uM
T1 construct: endogenous in cells; host or cells: glycogen-elicited peritoneal neutrophils (PMNs) of Sprague-Dawley rats
T1 sequence (D4A7Q2 1-355): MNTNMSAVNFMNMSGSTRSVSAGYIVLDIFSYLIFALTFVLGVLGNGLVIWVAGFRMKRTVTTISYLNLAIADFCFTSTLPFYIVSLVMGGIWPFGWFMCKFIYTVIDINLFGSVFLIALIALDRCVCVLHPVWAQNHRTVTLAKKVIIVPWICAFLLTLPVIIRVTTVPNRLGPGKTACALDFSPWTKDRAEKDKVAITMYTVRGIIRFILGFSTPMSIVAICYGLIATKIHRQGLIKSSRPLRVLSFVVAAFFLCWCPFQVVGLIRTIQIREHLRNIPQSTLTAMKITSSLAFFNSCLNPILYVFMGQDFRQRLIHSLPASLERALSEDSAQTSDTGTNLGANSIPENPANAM
Experimental: (§2) Animals were sacrificed via administration of CO2 4 hours following peritoneal injection of 10 mL of 0.5% (w/v) oyster glycogen warmed to room temperature. Leukocyte harvesting via peritoneal lavage was performed using 20 mL of Hanks' buffered salt solution (HBSS−) containing 10 mM ethylene-diaminetetra-acetic acid (EDTA) disodium salt followed by a second lavage with 10 mL of HBSS− containing 10 mM EDTA. Exactly the same technique was performed on all rats with washes of the peritoneum prior to aspiration of samples approximating 1 minute. The volume of fluid recovered from each rat was approximately 20-25 mL and bloody lavages visibly containing significant red blood cell (RBC) populations were discarded.
(§3) Neutrophils isolated by peritoneal lavage were washed twice with 1 mL of HBSS− (without calcium chloride, magnesium chloride and magnesium sulfate) and centrifuged for ten minutes at 2000 rpms following each wash. PMNs utilized in functional assays were centrifuged at 25° C. while those used in binding assays were centrifuged at 4° C. to prevent internalization. A cold H2O RBC lysis was then performed with the addition of 9 mL of sterile ice-cold H2O and 1 mL of phosphate buffered saline (PBS) solution containing 0.1 M phosphate buffer, 0.027 M KCl and 1.37 M NaCl following resuspension of the sample in 1 mL of HBSS. Centrifugation was subsequently performed for ten minutes at 1600 rpms. White blood cell (WBC) differential stain containing saline, 2% acidic acid and phenol violet dye was used to identify the neutrophil population and trypan blue exclusion was used to determine viability of cells. As previously reported, 98% of leukocytes were neutrophils and approximately 95% of the cells were viable (Chen et al., 1996).
Competition binding assays for N-terminal capping groups and Re-libraries were conducted with 6 nM ^3H-fMLP in addition to the unlabelled competing analogue added at 1.0 uM and 10 uM to each well. […] Total binding in the competition assays was assessed in the presence of 1.0×10^6 PMNs per sample while non-specific binding was determined in the absence of cells. Each condition was performed in quadruplicate. Total activity added to each sample was determined from cpms obtained from a sample containing 6 nM ^3H-fMLF. Data was expressed as specific binding in fmols and converted to percent of total ^3H-fMLF binding (% control).
After a 1 hour incubation period at 4° C., the samples were harvested with the Tomtec Mach III Cell Harvester by vacuum aspiration onto 1.5 um pore size Skatron glass-fibre filter mats pre-treated with 0.1% polyethylenimine (w/v) for approximately 24 hours. Sample wells received three consecutive 12 second washes with 0.9% saline solution and 5 mL of liquid scintillation fluid was added to collected filters. Filters were counted for 2 minutes in the Beckman β-counter following exposure to scintillation fluid for 15 hours. Data was expressed in terms of specific binding in fmols converted to percent of total ^3H-fMLF binding (% control).
(§4) The curve-fitting program Prism was used to calculate KD, IC50 and EC50 values by fitting data to the one-site binding equations A, B and C respectively. • A. Equation: One site binding (hyperbola) Y=Bmax*X/(KD+X) • B. Equation: One site competition Y=Bottom+(Top−Bottom)/(1+10^(X−LogIC50)); with x=log (concentration) and y=binding • C. […] Additionally, Graph fit software was used to perform Scatchard analysis of saturation binding data and to confirm KD and Bmax values generated by Prism software.

elicited rat PMNs [1] = assay: Myeloperoxidase release in elicited rat PMNs co-stimulated with 0.1 uM fMLF; format: cell-based; settings: for antagonist function on MPO release in fMLF stimulated rat PMNs: 0.1 uM fMLF, inhibition at 10 uM, result in words; for % Control MPO release (1 uM capping group + 0.1 uM fMLF): 1 uM test peptide + 0.1 uM fMLF; for % Control MPO release (1 uM capping group + 0.1 uM fMLF) / % Control MPO Release (10 uM capping group + 0.1 uM fMLF): ± S.E.M.; for % Control MPO Release (10 uM capping group + 0.1 uM fMLF): 10 uM test peptide + 0.1 uM fMLF
Experimental: as §2, §3
as §1, with “In a final volume of 150 uL, 50 uL of the respective fMLP analogues (10 uM to 1 pM) and/or fMLP (10 uM to 1.0 uM) were incubated with isolated PMNs pre-treated with cytochalasin B (5 ug/mL) for 10 minutes.” left out

elicited rat PMNs [2] = format: cell-based; settings: MPO release, PMNs without fMLF, ± S.E.M.; for % Control (1 uM): test peptide 1 uM; for % Control (10 uM): test peptide 10 uM
Experimental: as §2, §3, §1, §4

CSCC[C@H](NC(=O)OC(C)(C)C)C(=O)N[C@@H](CC(C)C)C(=O)N[C@@H](Cc1ccccc1)C(=O)O [N-t-BocMLF, N-tert-butyloxycarbonylated-methionyl-leucyl-phenylalanine, reference compound]
inhibition of MPO release in fMLF-stimulated human neutrophils (FIG. 4) (human neutrophils): inhibited MPO release from fMLF stimulated cells | stimulation of MPO release by the compound itself in human neutrophils (human neutrophils): did not induce release | IC50 (Rat FPR; elicited rat PMNs, 6 nM 3H-fMLF, 4° C. 1 hour, brackets = 95% confidence interval, read-out: Receptor Binding (IC50)): 9.3 µM

Capping Group 16: Fluorenylmethylcarbonyl N-terminal capping group attached to peptide NleLFK ({Acetyl(9-fluorenyl)}-[Nle]LFK)
antagonist function on MPO release in fMLF stimulated rat PMNs (elicited rat PMNs [1]): exhibited antagonist function in fMLF stimulated cells | % Control MPO release (1 uM capping group + 0.1 uM fMLF) (elicited rat PMNs [1]): 161.7 ± 6.2 % control | % Control MPO Release (10 uM capping group + 0.1 uM fMLF) (elicited rat PMNs [1]): 108.9 ± 28.5 % control | competition binding of N-terminal modified NleLFK peptides (FIG. 8) (Rat FPR; 6 nM 3H-fMLF, result in words): did not significantly decrease the amount of ^3H-fMLF binding | % Control (1 uM) (elicited rat PMNs [2]): 84.1 ± 27.6 % control | % Control (10 uM) (elicited rat PMNs [2]): 59.9 ± 19.0 % control

Capping Group 18: N,N-diphenylcarbamoyl N-terminal capping group attached to peptide NleLFK ({N,N‑diphenylcarbamoyl}-[Nle]LFK)
% Control MPO release (1 uM capping group + 0.1 uM fMLF) (elicited rat PMNs [1]): 321.6 ± 8.6 % control | % Control MPO Release (10 uM capping group + 0.1 uM fMLF) (elicited rat PMNs [1]): 185.9 ± 15.7 % control | inhibition of 3H-fMLF binding at 10 uM compared with iso-BocMLFK (FIG. 8) (Rat FPR; peptide 10 uM, 6 nM 3H-fMLF, result in words): inhibited ^3H-fMLF binding to a degree comparable with known antagonist iso-BocMLFK | competition binding of N-terminal modified NleLFK peptides (FIG. 8) (Rat FPR; 6 nM 3H-fMLF, result in words): do not nullify binding affinity | % Control (1 uM) (elicited rat PMNs [2]): 142.7 ± 8.8 % control | % Control (10 uM) (elicited rat PMNs [2]): 125.2 ± 1.5 % control

N,N-diethylcarbamoyl-NleLFK ({N,N‑diethylcarbamoyl}-[Nle]LFK) [Capping Group 6]
antagonist function on MPO release in fMLF stimulated rat PMNs (elicited rat PMNs [1]): inhibited MPO release | % Control MPO release (1 uM capping group + 0.1 uM fMLF) (elicited rat PMNs [1]): 283.3 ± 25.1 % control | % Control MPO Release (10 uM capping group + 0.1 uM fMLF) (elicited rat PMNs [1]): 249.9 ± 6.2 % control | competition binding of N-terminal modified NleLFK peptides (FIG. 8) (Rat FPR; 6 nM 3H-fMLF, result in words, listed as 6): did not significantly decrease the amount of ^3H-fMLF binding | competition binding of N-terminal modified NleLFK peptides (FIG. 8) (Rat FPR; 6 nM 3H-fMLF, result in words, listed as N,N-diethylcarbamoyl-NleLFK): inhibit ^3H-fMLF binding | % Control (1 uM) (elicited rat PMNs [2]): 113.8 ± 14.3 % control | % Control (10 uM) (elicited rat PMNs [2]): 109.6 ± 3.3 % control

ReO-CyclopropylCONH-nleu-leu-phe-trp-glu-lys(dimethylgly-t-butylgly-cys-gly)-gly-OH (Cyclopropanecarbonyl-[Nle]LFWEKG-OH; not fully specified (residue 6); printed as ReO-CyclopropylCONH-nleu-leu-phe-trp-glu-lys(dimethylgly-t-butylgly-cys-gly)-gly-OH; also: ReO chelate on Lys side chain) [ReORP553 17-01]
inhibition of MPO release in fMLF-stimulated human neutrophils (FIG. 4) (human neutrophils): significantly inhibited the release of MPO | stimulation of MPO release by the compound itself in human neutrophils (human neutrophils): did not stimulate MPO release | binding affinity, fold greater than N-t-BocMLF (Rat FPR; from rat FPR IC50 values): approximately 12 fold
